Measured values published in patent US12162888B2, “Carboxamides as ubiquitin-specific protease inhibitors” (Valo Early Discovery, Inc., priority 2018, dated 2024).

target: T1, USP28 (His-tagged USP28-FL-mammalian) (Homo sapiens, UniProt Q96RU2); experiment: Ubiquitin-Rhodamine 110 Assay for USP28 Activity, Example A-1(a); format: biochemical; conditions: Ubiquitin-Rhodamine 110 assay, read-out: USP28 A-1(a) IC50 range
T1 construct: Expression of USP28 (1-1077)-TEV-6*His (pTT5 vector) was carried out in Expi293f cells; made in house; host or cells: Expi293F cells (pTT5 vector)
T1 sequence (Q96RU2 1-1077): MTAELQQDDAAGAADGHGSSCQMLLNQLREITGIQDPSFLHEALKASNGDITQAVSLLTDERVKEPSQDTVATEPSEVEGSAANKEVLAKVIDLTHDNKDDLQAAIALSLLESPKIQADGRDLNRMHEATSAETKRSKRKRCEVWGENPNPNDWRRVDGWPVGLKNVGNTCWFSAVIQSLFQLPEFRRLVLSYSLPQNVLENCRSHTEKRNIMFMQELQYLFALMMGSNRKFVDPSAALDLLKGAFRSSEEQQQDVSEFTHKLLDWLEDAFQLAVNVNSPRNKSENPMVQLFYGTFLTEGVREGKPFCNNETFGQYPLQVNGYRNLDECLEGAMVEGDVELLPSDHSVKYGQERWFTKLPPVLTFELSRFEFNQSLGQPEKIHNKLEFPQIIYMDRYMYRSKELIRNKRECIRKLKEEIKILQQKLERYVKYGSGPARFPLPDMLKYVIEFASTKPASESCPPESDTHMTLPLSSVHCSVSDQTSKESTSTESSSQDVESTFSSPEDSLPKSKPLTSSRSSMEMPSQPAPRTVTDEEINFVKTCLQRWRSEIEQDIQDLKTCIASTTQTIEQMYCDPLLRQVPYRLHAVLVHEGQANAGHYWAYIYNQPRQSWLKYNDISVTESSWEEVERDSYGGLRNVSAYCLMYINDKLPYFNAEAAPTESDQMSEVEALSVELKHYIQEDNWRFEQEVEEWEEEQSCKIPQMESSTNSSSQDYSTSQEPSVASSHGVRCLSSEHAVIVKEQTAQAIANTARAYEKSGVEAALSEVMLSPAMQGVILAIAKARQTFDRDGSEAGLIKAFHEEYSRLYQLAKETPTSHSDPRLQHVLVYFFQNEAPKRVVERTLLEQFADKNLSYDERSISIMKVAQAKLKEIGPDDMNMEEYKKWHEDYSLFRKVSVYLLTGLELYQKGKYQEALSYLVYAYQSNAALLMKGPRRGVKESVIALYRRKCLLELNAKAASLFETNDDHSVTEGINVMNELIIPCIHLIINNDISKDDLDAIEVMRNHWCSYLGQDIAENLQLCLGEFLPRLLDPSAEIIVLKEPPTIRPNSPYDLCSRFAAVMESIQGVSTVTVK
Procedure, shortened: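 Full-length His-tagged human USP28 (1-1077), expressed in Expi293F cells, was used at […] with 25 nM Ub-Rh110 (<<Km) in 20 mM Tris pH 8.0, 3 mM BME, 0.03% BGG and 0.01% Triton X-100. Compounds (25 μM-1.3 nM, 10-point) were preincubated with enzyme for 30 min, and the reaction ran 45 min at room temperature before a citric acid stop. Fluorescence was read at 485/535 nm, and IC50 came from 4-parameter fits of percent inhibition.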

Structure (SMILES) | IC50 [µM]
Cc1ccc2c(N)c(C(=O)N[C@H]3COc4cc(N5CCNCC5)ccc4[C@H]3C)sc2n1 (single isomer, unassigned) [Example 11-15] | > 2
Cc1ccc2c(N)c(C(=O)N[C@H]3COc4cc(N5CCNCC5)ccc4[C@@H]3C)sc2n1 (single isomer, unassigned) [Example 11-16] | > 2
Cc1ccc2c(N)c(C(=O)N[C@H]3COc4cc(N5CCNCC5)ccc4[C@@H]3C)sc2n1 (single isomer, unassigned) [Example 11-17] | > 2
Cc1ccc2c(N)c(C(=O)N[C@@H]3COc4cc(N5CCNCC5)ccc4[C@@H]3C)sc2n1 (single isomer, unassigned) [Example 11-18] | 0.2 to 2
Cc1cnc2c(N)c(C(=O)N[C@@H]3CCc4cc(N5CCNCC5)ccc4C3)sc2n1 (single isomer, unassigned) [Example 11-20] | 0.2 to 2
Cc1ccc2c(N)c(C(=O)N[C@H]3CCc4cc(N5CCNCC5)ccc4C3)sc2n1 (single isomer, unassigned) [Example 11-21] | 0.2 to 2
Cc1ccc2c(N)c(C(=O)N[C@@H]3CCc4cc(N5CCNCC5)ccc4C3)sc2n1 (single isomer, unassigned) [Example 11-22] | 0.05 to 0.2
CN[C@H]1CCN(c2ccc3c(c2)CC[C@H](NC(=O)c2sc4nc(C)cnc4c2N)C3)C1 (single isomer, unassigned) [Example 11-25] | 0.05 to 0.2
CN[C@H]1CCN(c2ccc3c(c2)CC[C@@H](NC(=O)c2sc4nc(C)cnc4c2N)C3)C1 (single isomer, unassigned) [Example 11-26] | > 2
CN[C@@H]1CCN(c2ccc3c(c2)CC[C@H](NC(=O)c2sc4nc(C)cnc4c2N)C3)C1 (single isomer, unassigned) [Example 11-27] | 0.05 to 0.2
CN[C@@H]1CCN(c2ccc3c(c2)CC[C@@H](NC(=O)c2sc4nc(C)cnc4c2N)C3)C1 (single isomer, unassigned) [Example 11-28] | 0.2 to 2
Cc1cnc2c(N)c(C(=O)N[C@H]3CCc4cc(N5C[C@@H]6C[C@H]5CN6)ccc4C3)sc2n1 (single isomer, unassigned) [Example 11-29] | 0.05 to 0.2
Cc1cnc2c(N)c(C(=O)N[C@@H]3CCc4cc(N5C[C@@H]6C[C@H]5CN6)ccc4C3)sc2n1 (single isomer, unassigned) [Example 11-30] | 0.2 to 2
Cc1cnc2c(N)c(C(=O)N[C@H]3CCc4cc(N5C[C@H]6C[C@@H]5CN6)ccc4C3)sc2n1 (single isomer, unassigned) [Example 11-31] | 0.05 to 0.2
Cc1cnc2c(N)c(C(=O)N[C@@H]3CCc4cc(N5C[C@H]6C[C@@H]5CN6)ccc4C3)sc2n1 (single isomer, unassigned) [Example 11-32] | 0.2 to 2
Cc1nc2sc(C(=O)N[C@H]3CCc4cc(N5CCNCC5)ccc4C3)c(N)c2s1 (single isomer, unassigned) [Example 11-33] | 0.2 to 2
Cc1nc2sc(C(=O)N[C@@H]3CCc4cc(N5CCNCC5)ccc4C3)c(N)c2s1 (single isomer, unassigned) [Example 11-34] | 0.05 to 0.2
Cc1cnc2c(N)c(C(=O)N[C@@H]3CCc4cc(N5CCNCC5)cc(F)c4C3)sc2n1 (single isomer, unassigned) [Example 11-37] | 0.2 to 2
Cc1cnc2c(N)c(C(=O)N[C@H]3CCc4cc(N5CCNCC5)cc(F)c4C3)sc2n1 (single isomer, unassigned) [Example 11-38] | 0.05 to 0.2
Cc1ccc2c(N)c(C(=O)N[C@H]3CCc4cc(N5CC6CNCC(C5)O6)cc(F)c4C3)sc2n1 (single isomer, unassigned) [Example 11-39] | 0.2 to 2
Cc1ccc2c(N)c(C(=O)N[C@@H]3CCc4c(C#N)c(N5CCNCC5)cc(F)c4C3)sc2n1 (single isomer, unassigned) [Example 14-9] | 0.2 to 2
Cc1ccc2c(N)c(C(=O)N[C@H]3CCc4c(C#N)c(N5CCNCC5)cc(F)c4C3)sc2n1 (single isomer, unassigned) [Example 14-10] | 0.001 to 0.05

Structure (SMILES) | IC50 [µM]
Cc1cnc2c(N)c(C(=O)N[C@@H]3CCc4c(C#N)c(N5CCNCC5)cc(F)c4C3)sc2n1 (single isomer, unassigned) [Example 14-11] | 0.001 to 0.05
Cc1cnc2c(N)c(C(=O)N[C@H]3CCc4c(C#N)c(N5CCNCC5)cc(F)c4C3)sc2n1 (single isomer, unassigned) [Example 14-12] | 0.2 to 2
Cc1nc2sc(C(=O)N[C@@H]3CCc4c(C#N)c(N5CCNCC5)cc(F)c4C3)c(N)c2s1 (single isomer, unassigned) [Example 14-13] | 0.2 to 2
Cc1nc2sc(C(=O)N[C@H]3CCc4c(C#N)c(N5CCNCC5)cc(F)c4C3)c(N)c2s1 (single isomer, unassigned) [Example 14-14] | 0.001 to 0.05
Cc1ccc2c(N)c(C(=O)N[C@H]3CCc4c(C#N)c(N5CC6CNCC(C5)O6)cc(F)c4C3)sc2n1 (single isomer, unassigned) [Example 14-15] | 0.001 to 0.05
Cc1ccc2c(N)c(C(=O)N[C@@H]3CCc4c(C#N)c(N5CC6CNCC(C5)O6)cc(F)c4C3)sc2n1 (single isomer, unassigned) [Example 14-16] | 0.05 to 0.2
Cc1ccc2c(N)c(C(=O)N[C@H]3CCc4c(C#N)c(N5CC6CCC(C5)N6)cc(F)c4C3)sc2n1 (single isomer, unassigned) [Example 14-17] | 0.001 to 0.05
Cc1ccc2c(N)c(C(=O)N[C@@H]3CCc4c(C#N)c(N5CC6CCC(C5)N6)cc(F)c4C3)sc2n1 (single isomer, unassigned) [Example 14-18] | 0.05 to 0.2
Cc1cnc2c(N)c(C(=O)N[C@H]3CCc4c(C#N)c(N5CC6CCC(C5)N6)cc(F)c4C3)sc2n1 (single isomer, unassigned) [Example 14-19] | 0.001 to 0.05
Cc1cnc2c(N)c(C(=O)N[C@@H]3CCc4c(C#N)c(N5CC6CCC(C5)N6)cc(F)c4C3)sc2n1 (single isomer, unassigned) [Example 14-20] | 0.2 to 2
Cc1nc2sc(C(=O)N[C@H]3CCc4c(C#N)c(N5CC6CCC(C5)N6)cc(F)c4C3)c(N)c2s1 (single isomer, unassigned) [Example 14-21] | 0.001 to 0.05
CO[C@H]1CN(c2cc(F)c3c(c2C#N)CC[C@H](NC(=O)c2sc4nc(C)ccc4c2N)C3)C[C@@H]1N (single isomer, unassigned) [Example 14-23] | 0.001 to 0.05
CO[C@H]1CN(c2cc(F)c3c(c2C#N)CC[C@@H](NC(=O)c2sc4nc(C)ccc4c2N)C3)C[C@@H]1N (single isomer, unassigned) [Example 14-24] | 0.2 to 2
Cc1cnc2c(N)c(C(=O)N[C@@H]3CCc4c(ccc(N5CCNCC5)c4F)C3)sc2n1 (single isomer, unassigned) [Example 21-9] | 0.05 to 0.2
Cc1cnc2c(N)c(C(=O)N[C@H]3CCc4c(ccc(N5CCNCC5)c4F)C3)sc2n1 (single isomer, unassigned) [Example 21-10] | > 2
Cc1cnc2c(N)c(C(=O)N[C@@H]3CCc4cc(N5CCNCC5)c(F)cc4C3)sc2n1 (single isomer, unassigned) [Example 21-11] | 0.2 to 2
Cc1cnc2c(N)c(C(=O)N[C@H]3CCc4cc(N5CCNCC5)c(F)cc4C3)sc2n1 (single isomer, unassigned) [Example 21-12] | 0.001 to 0.05
Cc1ccc2c(N)c(C(=O)N[C@H]3CCc4c(F)c(N5CC6CCC(C5)N6)cc(F)c4C3)sc2n1 (single isomer, unassigned) [Example 22-5] | 0.001 to 0.05
[2H]C1([2H])c2c(F)cc(N3CCNCC3)cc2OC[C@@H]1NC(=O)c1sc2nc(C)ccc2c1N (single isomer, unassigned) [Example 33-1] | 0.001 to 0.05
[2H]C1([2H])c2c(F)cc(N3CCNCC3)cc2OC[C@H]1NC(=O)c1sc2nc(C)ccc2c1N (single isomer, unassigned) [Example 33-2] | 0.2 to 2
CCn1ccc2cc(C(=O)N[C@H]3CCc4nc(N5C[C@@H](COC)[C@@H](N)C5)ccc4C3)cnc21 (single isomer, unassigned) [Example 400] | 0.2 to 2
CCn1ccc2cc(C(=O)N[C@H]3CCc4nc(N5C[C@H](COC)[C@H](N)C5)ccc4C3)cnc21 (single isomer, unassigned) [Example 401] | 0.2 to 2
